Reference: US8685947B2, “Compositions and methods for loop diuretics with consistent bioavailability” (Brown University, priority 2010, dated 2014)

Tested on: albino, male, Sprague-Dawley subjects
Test: Diuretic bioactivity analysis: urine output in metabolic cages after oral gelatin capsule dosing
Format: in vivo, rats
Conditions: 10 mg/kg oral
Method: Subject rats were weighed at the start of each example. Each formulation was prepared and then loaded into size 9 gelatin capsules using a gelatin capsule filler (Torpac, Fairfield, N.J.). Each gelatin capsule was weighed on a microbalance (AD-4 Autobalance, Perkin Elmer, Waltham, Mass.) prior to and after drug loading to prepare oral doses of 2.5 mg, 5 mg, or 10 mg of drug per kg of body mass within 0.5 mg of dose mass.
Each subject was anesthetized in an induction chamber with 3.5% isoflurane (Novation, Irving, Tex.) for 5-10 minutes. Once anesthetized, the subject was removed from the induction chamber and dosed with a size 9 gelatin capsule containing one of the furosemide formulations using the gelatin capsule dosing syringe (Torpac, Fairfield, N.J.). As a negative control the same subjects were administered empty gelatin capsules without furosemide to quantify the basal urine mass output for comparison. Upon recovery from anesthesia, each subject was then transferred to a metabolic cage for urine collection over a 10 hour period.
Twelve albino, male, Sprague-Dawley subjects (450 g to 750 g) were used as subjects in the bioactivity analysis example. Subjects were housed in standard bedded cages in accordance with NIH and IACUC guidelines. Immediately after oral gavage with a furosemide formulation, subjects were housed individually in a metabolic cage rack (Unifab Cages, Kalamazoo, Mich.) as shown in FIG. 2. Subjects were given access to food and water ad libitum throughout the study. Metabolic cages were equipped with wire grating floors that allowed for free passage and collection of excreted material during the period of containing the subject. Feces were collected beneath the large opening wire grating floor by smaller opening wire mesh screen, and urine continued through the screen into a funnel for collection into pre-weighed glass scintillation vials (Cole-Parmer, Vernon Hills, Ill.). At two hour intervals after dosing, the glass scintillation vials were weighed (Mettler Toledo, Columbus, Ohio) to quantify urine output as a function of time and were then replaced. Increased urine output above baseline values was used as a non-invasive measure of diuretic activity of the various furosemide formulations examined. After each 10 hour study, subjects were housed in bedded cages for a recovery period of at least 48 hours between metabolic cage studies.
Each dose was administered to three subjects and the average urine mass produced in the two hour time periods was determined and was compared to the average output of the same subjects that received a sham dosage without any furosemide, referred to in the figures as the basal output.

Structure (SMILES): NS(=O)(=O)c1cc(C(=O)O)c(NCc2ccco2)cc1Cl [stock furosemide, Furosemide]
- total urine output at hour 10 relative to the micronized dose (N=3, not significantly different): 1.02 fold
- mean urine mass output two hours after dosing relative to basal urine output (N=3, p<0.01): 12.2 fold
- mean urine mass output two hours after dosing relative to equivalent dose of micronized furosemide (N=3, p<0.01): 8.6 fold
- urine output two hours after oral dosing compared to micronized furosemide and basal control (N=3, p<0.01): statistically significant greater urine output
